The text below walks through data of US5786367A, “Cyclic amide derivatives” (Otsuka Pharmaceutical Co., Ltd., priority 1994, dated 1998).

In the experiment the test system is skin erythema. Nature of the experiment: Activity for inhibiting skin erythema caused by ultraviolet radiation. Format: in vivo, albino guinea pig (Hartley strain, female, 7-8 week age). The following applies: for inhibition in vivo at 3 %: Cavia porcellus, read-out: Rate of activity for inhibiting the skin erythema; for 50% inhibitory concentration (IC50) for inhibiting the skin erythema: topical, three concentrations within 0.1 to 10%. The method, then:
The hairs covering in the back of albino guinea pig (Hartley strain, female, 7-8 week age) were shaved by using an electric hair clippers and a shaver. In the next day, the guinea pig was fixed in Bowlman's cage, then a light shield tape (adhesive plaster for patch test), having 4 round holes of 1.5 cm in diameter was adhered on the hair clipped portion so as to provide 4 sites (round holes) to be exposed to the ultraviolet rays. […] Each one of the test sample solutions was prepared by dissolving each test compounds in three kinds of concentrations within 0.1 to 10%, and applied.

The mark [1] stands for this setting: 3% concentration of test compound, 10 μl topical, UV 1.3-1.5 mW/cm^2 for 30 minutes, measured 24 hours later.

Where a name gives a salt, the structure may show the parent alone.

Regarding “5,7-diallyl-3,4-dihydro-6-hydroxy-1-(2-hydroxybutyl)-2(1H)-quinolinone [Example 110]”, the “Rate of activity for inhibiting the skin erythema” value under setting [1] came to 44%.
In the case of `C=CCc1cc2c(c(CC=C)c1O)NC(=O)CO2` [Example 35, 5,7-diallyl-6-hydroxy-3-(2H)-1,4-benzoxazinone], the “50% inhibitory concentration (IC50) for inhibiting the skin erythema” value (shortened to “50% inhibitory concentration (IC50)”) came out at 5.9 concentration in %. Also, under setting [1], the inhibition in vivo at 3 % is 41%.
Regarding `C=CCc1cc2c(c(CC=C)c1O)OCC(=O)N2CC=C` [Example 36, 7-hydroxy-4,6,8-triallyl-3(2H)-1,4-benzoxazinone], the “50% inhibitory concentration (IC50)” value was 9.8 concentration in %. Moreover, under setting [1], the inhibition in vivo at 3 % stood at 26%.
For `C=CCc1cc2c(c(CC=C)c1O)N(CC=C)C(=O)CO2` [Example 37, 6-hydroxy-4,5,7-triallyl-3(2H)-1,4-benzoxazinone] the same measures were 7.7 concentration in % and 39%.
In the case of `C=CCc1cc2c(c(CC=C)c1O)CCC(=O)N2CCCCl` [Example 42, 1-(3-chloropropyl)-5,7-diallyl-3,4-dihydro-6-hydroxy-2(1H)-quinolinone], the inhibition in vivo at 3 % under setting [1] was 45%.
Same read-out and setting: next, `C=CCc1cc2c(c(CC=C)c1O)CCC(=O)N2CCCN1CCCCC1` [Example 71, 5,7-diallyl-3,4-dihydro-6-hydroxy-1-[3-(piperidinopropyl)]-2(1H)-quinolinone]: 45%.
Still for that read-out and setting: the result for `C=CCc1cc2c(c(CC=C)c1O)CCC(=O)N2CCCN1CCOCC1` [Example 72] reads 33%.
Take `C=CCc1cc2c(c(CC=C)c1O)CCC(=O)N2CC(N)=O` [Example 77, 1-(carbamoylmethyl)-5,7-diallyl-3,4-dihydro-6-hydroxy-2(1H)-quinolinone]: the “50% inhibitory concentration (IC50)” value was 2.7 concentration in %. For the same compound, under setting [1], the inhibition in vivo at 3 % was 50%.
With `C=CCc1cc2c(c(CC=C)c1O)CCC(=O)N2CCCCNCCCC` [Example 84, 1-(4-n-butylaminobutyl)-5,7-diallyl-3,4-dihydro-6-hydroxy-2(1H)-quinolinone.oxalate], the inhibition in vivo at 3 % under setting [1] was determined as 31%.
Still for that read-out and setting: the result for `C=CCc1cc2c(c(CC=C)c1O)CCC(=O)N2CCCCNC(C)(C)CO` [Example 85, 5,7-Diallyl-3,4-dihydro-6-hydroxy-1-[4-(2-hydroxy-1,1-dimethyl)ethylamino]butyl-2-(1H)-quinolinone. oxalate] reads 39%; that for `C=CCc1cc2c(c(CC=C)c1O)CCC(=O)N2CCCCn1ccnc1` [Example 87, 5,7-Diallyl-3,4-dihydro-6-hydroxy-1-[4-(imidazol-1-yl)butyl]-2-(1N)-quinolinone.oxalate], 28%.
`C=CCc1cc2c(c(CC=C)c1O)CCC(=O)N2CCCn1cnnc1` [Example 88, 5,7-diallyl-3,4-dihydro-6-hydroxy-1-[3-(1,2,4-triazol-4-yl)propyl]-2(1H)-quinolinone]: the inhibition in vivo at 3 % under setting [1] came to 37%.
In the case of `C=CCc1cc2c(c(CC=C)c1O)CCC(=O)N2CCCCCCCCCCCC` [Example 102], the “50% inhibitory concentration (IC50)” value turned out to be 3.7 concentration in %. Also, the inhibition in vivo at 3 % under setting [1] is 57%.
In the case of `C=CCc1cc2c(c(CC=C)c1O)CCC(=O)N2CCCCOC(C)=O` [Example 104], under setting [1], the inhibition in vivo at 3 % stood at 31%.
Regarding `C=CCc1cc2c(c(CC=C)c1O)CCC(=O)N2CCCCC(=O)OC` [Example 105], the inhibition in vivo at 3 % under setting [1] turned out to be 44%.
Same read-out and setting: next, `C=CCc1cc2c(c(CC=C)c1O)CCC(=O)N2Cc1ccc(C(=O)OC)cc1` [Example 107, 5,7-Diallyl-3,4-dihydro-6-hydroxy-1-(4-methoxycarbonylbenzyl)-2(1H)-quinolinone]: 44%.
